Key:
DU-145 cell line = test: Clonogenicity test, sensitizing effect with an antineoplastic drug; assay type: cell-based; conditions: DU-145, cisplatin alone; read-out: IC50 (clonogenic survival, cisplatin)
Description: Clonogenicity tests are carried out against several model cell lines derived from cancer including prostate cancer (DU-145). Cells are exposed to an anti-cancer agent targeting DNA (cisplatin or camptothecin). Damaged cells are counted and seeded in the presence or in the absence of B-2 in triplicate culture plates. After about two weeks of incubation at 37° C. the number of clones formed is counted. Each cell capable of repairing its lesions will then form a clone. After counting, the percentage of survival will be calculated relative to the control condition for which it is considered that there is 100% survival.
The main interest of RAD51 protein inhibitors is the sensitization of chemo-resistant or radio-resistant cancerous cell lines. Clonogenicity evaluation was carried out on the DU-145 cell line treated with cisplatin treatment in the presence or in the absence of disulfonate stilbene B-2 (RAD51 protein inhibitor).
DU-145 cell line was treated with camptothecin in the presence or in the absence of disulfonate stilbene B-2 (RAD51 protein inhibitor) and the clonogenic cell survival was determined.

[1] = tested on: RAD51 foci in DU-145 cells; test: Rad51 foci quantification by immunofluorescence; assay type: cell-based; conditions: DU-145, cisplatin 30 μM for 1 hour, fixed after 18 h
Description: DU-145 cells were grown on coverslips (Life Technologies) at a density of 5×10^3 cells per well in medium (RPMI) supplemented with 10% fetal bovine serum (Gibco-Invitrogen). Cells were treated with Cisplatin at 30 μM for 1 hour in presence or in absence of RAD51 inhibitor B-2 at 20 μM, and then the medium was replaced with molecule-free medium. After 18 h, cells were washed once in PBS for 5 min and fixed with ethanol absolute for 25 min.
The fixed cells were incubated for 1 h in the PBS buffer containing 1:1000 diluted anti-RAD51 antibody at room temperature. After three 5-min washes in PBS, slides were incubated with PBS solution containing the secondary antibody conjugated with AlexaFluor 555 ([…]) for 45 min in dark room. […] The images were recorded with NIS Element software (Version 3.6, Nikon, Tokyo, Japan). The quantification of RAD51 foci was processed with a program derived from Fiji-ImageJ software (NIH, Bethesda, Maryland, USA). […]
The treatment with Cisplatin alone induces a high level of RAD51 foci, whereas this level is decreased when the treatment is associated with B-2 20 μM. After the quantification of the number of RAD51 foci per cell, the number of cells containing more than 20 RAD51 foci was determined.

[2] = tested on: DU145 prostate cancer cell line; test: Cytotoxicity, MTT assay; assay type: cell-based; conditions: DU-145 cells, 50 μM for 3 days
Description: (§1) Prostate cancer cells DU145 (carcinoma) and fibroblast cells were cultured in […] (RPMI 1640 medium) supplemented with 10% fetal bovine serum (FBS) and 1% penicillin/streptomycin, and were grown at 37° C. with 5% CO2.
(§2) Tested molecules were dissolved and stored in DMSO at 20 mM concentration.
(§3) DU145 and fibroblast cells were seeded at 5×10^3 cells/well in 100 μl of medium in standard 96-well plates. The plates were incubated 24 h at 37° C. at an atmosphere of 5% CO2. Molecule solutions diluted in DMSO were serially diluted by RPMI 1640 medium from 60 μM to 0.02 μM and were added in 100 μl RPMI in quadruplicate.
After 72 h of incubation, 20 μL of 5 mg mL-1 MTT was added to each well according to the manufacturer's instructions. After 2 h of incubation at 37° C., the medium was removed, and 200 μl DMSO was added to each well to dissolve formazan crystals. The absorbance at 540 nm of each well was then monitored using an EnSpire multimode plate reader. Absorbance of each well was expressed as percentage of the control (wells with untreated cells), and the 50% inhibitory concentration (IC50) was determined. […] All data were expressed as the mean values±standard deviation. The IC50 values were calculated by linear regression analysis of the concentration-log response curves using the software GraphPad InStat 3.0. […]

HsRad51 = target: T1, HsRad51 (Homo sapiens, UniProt Q06609); test: RAD51 oligomerization by SDS-PAGE gel after crosslink; assay type: biochemical; conditions: 2.5 μM HsRad51, disuccinimidyl suberate crosslink, SDS-PAGE/Western blot; FIG. 1
T1 sequence (Q06609 1-339): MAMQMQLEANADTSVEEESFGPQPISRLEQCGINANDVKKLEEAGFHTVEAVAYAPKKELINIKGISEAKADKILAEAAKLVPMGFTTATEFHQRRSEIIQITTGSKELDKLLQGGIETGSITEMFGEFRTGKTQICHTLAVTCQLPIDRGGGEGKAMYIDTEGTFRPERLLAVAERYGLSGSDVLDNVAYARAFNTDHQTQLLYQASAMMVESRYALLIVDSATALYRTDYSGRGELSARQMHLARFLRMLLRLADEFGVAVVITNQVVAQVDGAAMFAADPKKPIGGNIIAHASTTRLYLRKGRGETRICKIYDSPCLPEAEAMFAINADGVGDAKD
Description: The reaction was performed at room temperature. 2.5 μm HsRad51 was incubated with the indicated concentrations of tested compounds for 10 min in a buffer containing 20 mm sodium phosphate, 50 mm NaCl, 1 mm MgCl 2, and 1 mm ATP. The cross-linking reactions were initiated by the addition of disuccinimidyl suberate (50 μm) and allowed to proceed for 30 min. Reactions were quenched by the addition of Tris-HCl (pH 7.5, final concentration: 50 mm) followed by subsequent incubations for 15 min. The products were then separated by 12% SDS polyacrylamide gel electrophoresis and detected by Western blot with mouse monoclonal anti-Rad51 antibody (NeoMarkers) and anti-mouse Alexa-Fluor 700-conjugated secondary antibody (Molecular Probes, Eugene, OR). The cross-linked dimer was quantified by an Odyssey Infrared Imaging System scanner (Li-Cor Biosciences) (Martinez, S. F. et al., “Targeting human Rad51 by specific DNA aptamers induces inhibition of homologous recombination”, Biochimie, December 2010, Vol. 92, No. 12, pp. 1832-1838).
The SDS-PAGE electrophoresis after crosslink maintains and immobilizes the RAD51 protein complexes and thus allows visualization of the degree of oligomerization (polymer formation) of the RAD51 protein. The effect of RAD51 protein inhibitors B-1, B-2, B-3, DIDS and X-4 on this key step of RAD51 protein recombinase activity has thus been evaluated. The results are presented on FIG. 1.

fibroblast cells = test: Cytotoxicity, MTT assay; assay type: cell-based; conditions: 50 μM for 3 days, FIG. 7
Description: as §1, §2, §3
After 72 h of incubation, 20 μL of 5 mg mL-1 MTT was added to each well according to the manufacturer's instructions. After 2 h of incubation at 37° C., the medium was removed, and 200 μl DMSO was added to each well to dissolve formazan crystals. The absorbance at 540 nm of each well was then monitored using an EnSpire multimode plate reader. Absorbance of each well was expressed as percentage of the control (wells with untreated cells), and the 50% inhibitory concentration (IC50) was determined. […] All data were expressed as the mean values±standard deviation. The IC50 values were calculated by linear regression analysis of the concentration-log response curves using the software GraphPad InStat 3.0.

Rad51 = target: T2, Rad51 (Homo sapiens, UniProt Q06609); test: DNA invasion by D-loop assay (strand exchange); assay type: biochemical; conditions: 0.5 μM Rad51, 1 μM 100-ssDNA, 37° C.; read-out: IC50 (RAD51 protein inhibition, D-loop formation)
T2 sequence (Q06609 1-339): T1 sequence (Q06609 1-339)
Description: Labeled 100-ssDNA** (1 μM) was incubated with 0.5 μM Rad51 in presence or absence of the indicated amounts of the corresponding molecule in 10 μL of standard reaction buffer containing 20 mM Tris-HCl (pH 8), 1 mM ATP, 1 mM DTT, 1 mM CaCl2) at 37° C. for 20 min. The reaction was initiated by adding supercoiled pPB4.3 DNA (200 μM in bp). After incubation of 30 min at 37° C., the reactions were stopped and deproteinized by a stop solution (10 mM Tris-HCl pH 8, 10 mM MgCl2, 1% SDS, and 1 mg/mL proteinase K. The reaction mixtures were further incubated for 15 min at 37° C. After adding 5-fold loading dye (0.05% bromophenol blue, 8% glycerol, 1 mM EDTA), the reaction products were separated by electrophoresis on 1% agarose gel. The electrophoresis was carried out in 0.5×TAE buffer (20 mM Tris, 10 mM acetic acid and 1 mM EDTA) at 100 V for 2 h. The labeled products (100-ssDNA** and D-loop) were visualized and quantified by the detection of the IRD-700 dye with the 700 nm infrared fluorescent detection channel of an Odyssey Infrared Imager (LI-COR) (Normand, A. et al., Biochemical Pharmacology, October 2014, Vol. 91, No. 3, pp. 293-300).
The “D-loop” in vitro test allows the quantification of the formation of the strand exchange structure (D-loop) and thus the determination of the inhibitory power of a molecule during the strand exchange step of the recombinase mechanism. IC50 measuring the RAD51 protein inhibition in presence of compounds A-1 to A-5, […] and DIDS are then calculated.

SMILES: N.N.[Cl][Pt][Cl] [Cisplatin, reference compound]
- IC50 (DU-145 cell line): 33 µM
- level of RAD51 foci [1]: high level

SMILES: O=c1c2ccccc2nc(/C=C/c2cccnc2)n1Cc1ccccc1 [BPQ, (E)-3-benzyl-2-(2-(pyridin-3-yl)vinyl)quinazolin-4(3H)-one]
- mortality of cells [2]: 90%
- cytotoxic effect ([2]; FIG. 6): high cytotoxicity

SMILES: O=S(=O)(O)c1cc(N=C=S)ccc1C=Cc1ccc(N=C=S)cc1S(=O)(=O)O [DIDS, 4,4′-Diisothiocyano-2,2′-stilbene disulfonic acid, reference compound]
- oligomerization state of RAD51 protein (HsRad51): reduction
- cytotoxic effect (fibroblast cells): has a cytotoxic effect
- IC50 (Rad51): 1 µM

Source: US12233041B2, “Disulfonate stilbenes for use in the treatment of proliferative diseases” (UNIVERSITÉ DE NANTES, priority 2018, dated 2025)
